How the values were obtained:
Format in all cases: cell-based
[1] = test system: SH-SY5Y (human neuroblastoma) cells; experiment: Cell viability, Cell Titer Glo 2.0 assay; details: read-out: Viability SHSY5Y.3 GI50
Method in brief: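 Viability was read by CellTiter-Glo 2.0 luminescence after a 72-hour compound exposure at 37° C. under 5% CO2. Cells were in IMDM plus 10% FBS containing 0.1% DMSO, and medium-only wells gave the blank.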

HTT mRNA [2] = experiment: Splicing RT-qPCR assay (THP), Table 2A; details: Table 2A (THP); for AC50: AJ mRNA increase, read-out: HTT AJ (increase in alternative junction mRNA, AC50); for IC50: CJ mRNA decrease, read-out: HTT CJ (decrease in canonical junction mRNA, IC50)
MYB mRNA [3] = experiment: Splicing RT-qPCR assay (THP), Table 2A; details: Table 2A (THP); for AC50: AJ mRNA increase, read-out: MYB AJ (increase in alternative junction mRNA, AC50); for IC50: CJ mRNA decrease, read-out: MYB CJ (decrease in canonical junction mRNA, IC50)
MYB mRNA [4] = experiment: Gene panel canonical junction qPCR assay, decrease in CJ mRNA, Table 3; details: decrease in canonical junction (CJ) mRNA, gene panel qPCR, Table 3
Method in brief: (§1)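 IC50 denotes the concentration giving 50% decrease in canonical-junction mRNA, fitted by 4-parameter logistic to percentage response derived from ΔΔCt versus housekeeping gene and DMSO control. Cells (A673 or K562) exposed 24 h to 11-point 3-fold serial dilutions from 10 uM top, DMSO ≤0.25%; junction-spanning primer/probe qPCR.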

HTT mRNA [5] = experiment: as above; details: decrease in canonical junction (CJ) mRNA, gene panel qPCR, Table 3
Method in brief: as §1

Structure (SMILES) | GI50 [1] | AC50 (HTT mRNA [2]) | IC50 (HTT mRNA [2]) | AC50 (MYB mRNA [3]) | IC50 (MYB mRNA [3]) | IC50 (MYB mRNA [4]) | IC50 (HTT mRNA [5])
COc1cc2nn(C)cc2cc1NC(=O)c1ccc(N2CCC(NC3CC3)CC2)c2c(F)n(C)nc12 [Compound 477] | 0.1 to 1 µM | 0.1 to 1 µM | 0.1 to 1 µM | 0.1 to 1 µM | 0.1 to 1 µM | 0.1 to 1 µM | 0.1 to 1 µM
Cc1cn2cc(NC(=O)c3ccc(N4CCC(NC5CC5)CC4)c4cn(C)nc34)c(F)c2c(C)n1 [Compound 478, 4-[4-(cyclopropyl-amino)-1-piperidyl]-N-(8-fluoro-1,3-dimethyl-pyrrolo[1,2-a]-pyrazin-7-yl)-2-methyl-indazole-7-carboxamide] | 1 to 10 µM | > 10 µM | > 10 µM | > 10 µM | > 10 µM | > 10 µM | > 10 µM
Cc1cn2cc(NC(=O)c3ccc(N4CCC(NC5CC5)CC4)c4cn(C)nc34)nc2c(Cl)n1 [Compound 479, N-(8-chloro-6-methyl-imidazo[1,2-a]-pyrazin-2-yl)-4-[4-(cyclopropylamino)-1-piperidyl]-2-methyl-indazole-7-carboxamide] | 1 to 10 µM | > 10 µM | > 10 µM | 0.1 to 1 µM | 0.1 to 1 µM | 0.1 to 1 µM | > 10 µM
Cn1cc2c(N3CCC(NC4CC4)CC3)cc(F)c(C(=O)Nc3ccc4c(c3)COB4O)c2n1 [Compound 481, 4-(4-(cyclopropyl-amino)piperidin-1-yl)-6-fluoro-N-(1-hydroxy-1,3-dihydrobenzo[c][1,2]-oxaborol-5-y1)-2-methyl-2H-indazole-7-carboxamide 2,2,2-trifluoroacetate] | 1 to 10 µM | > 10 µM | > 10 µM | 1 to 10 µM | > 10 µM | > 10 µM | > 10 µM
Cn1cc2c(N3CCC(NC4CC4)CC3)cc(F)c(C(=O)Nc3ccc4c(c3)B(O)OC4)c2n1 [Compound 482, 4-[4-(cyclopropyl-amino)-1-piperidy1]-6-fluoro-N-(1-hydroxy-3H-2,1-benzoxaborol-6-y1)-2-methyl-indazole-7-carboxamide 2,2,2-trifluoroacetate] | 1 to 10 µM | > 10 µM | > 10 µM | > 10 µM | > 10 µM | > 10 µM | > 10 µM
Cc1cc2cc(NC(=O)c3ccc(N4CCC(NC5CC5)CC4)c4cn(C)nc34)sc2c(C)n1 [Compound 483, 4-[4-(cyclopropyl-amino)-1-piperidyl]-N-(5,7-dimethyl-thieno[2,3-c]-pyridin-2-yl)-2-methyl-indazole-7-carboxamide] | 0.1 to 1 µM | > 10 µM | > 10 µM | > 10 µM | > 10 µM | > 10 µM | > 10 µM
Cc1cc2cc(NC(=O)c3c(F)cc(N4CCC(NC5CC5)CC4)c4cn(C)nc34)sc2c(C)n1 [Compound 484, 4-[4-(cyclopropyl-amino)-1-piperidyl]-N-(5,7-dimethyl-thieno[2,3-c]pyridin-2-yl)-6-fluoro-2-methyl-indazole-7-carboxamide] | 1 to 10 µM | > 10 µM | > 10 µM | > 10 µM | > 10 µM | > 10 µM | > 10 µM
COc1cc2nn(C)cc2cc1NC(=O)c1ccc(N2CCC(NC3CC3)CC2)c2c(C)n(C)nc12 [Compound 485, 4-[4-(cyclopropylamino)-1-piperidyl]-N-(6-methoxy-2-methyl-indazol-5-yl)-2,3-dimethyl-indazole-7-carboxamide] | 0.1 to 1 µM | 0.1 to 1 µM | 0.1 to 1 µM | 0.1 to 1 µM | 0.1 to 1 µM | 0.1 to 1 µM | 0.1 to 1 µM
Cc1cn2cc(NC(=O)c3ccc(N4CCC(NC5CC5)CC4)c4cn(C)nc34)nc2c(-c2ccns2)n1 [Compound 486, 4-(4-(cyclopropylamino)-piperidin-1-yl)-N-(8-(isothiazol-5-yl)-6-methyl-imidazo[1,2-a]-pyrazin-2-yl)-2-methyl-2H-indazole-7-carboxamide] | 1 to 10 µM | > 10 µM | > 10 µM | > 10 µM | > 10 µM | > 10 µM | > 10 µM
Cc1cn2cc(NC(=O)c3ccc(N4CCC(NC5CC5)CC4)c4cn(C)nc34)nc2c(-c2ccn[nH]2)n1 [Compound 487, 4-(4-(cyclopropyl-amino)piperidin-1-yl)-2-methyl-N-(6-methyl-8-(1H-pyrazol-5-yl)imidazo[1,2-a]-pyrazin-2-yl)-2H-indazole-7-carboxamide 2,2,2-trifluoroacetate] | 1 to 10 µM | > 10 µM | 1 to 10 µM | > 10 µM | > 10 µM | > 10 µM | 1 to 10 µM
